Here are results for one molecule from patent US10525186B2 (Fresenius Medical Care Holdings, Inc., priority 2009, dated 2020).

The experiment can be described thus: Hemodialysis treatments with trisodium citrate infusion into the arterial line and Citrasate dialysate; measured ionized calcium. In kind it is in vivo, maintenance HD patients. The conditions noted are these: 15 min into the treatment, mean±SD. As for the experimental part:
For one treatment only, Citrasate with 2.5 mEq/L Ca was used. No post-dialyzer Ca infusion was performed. Total Ca, Ca^++ and total Ci were measured systemically, pre- and post-dialyzer at the following time points: before HD (systemically only), at several time points throughout the treatment, and at the end of HD. […] Total protein and albumin were measured before dialysis. The most recent alkaline phosphatase (AP) and total parathyroid hormone (PTH) (Scantibodies assay, Scantibodies Laboratory, Inc., Santee, Calif.) were recorded. […] All subjects used Optiflux F180NR dialyzers (Fresenius Medical Care North America, Waltham, Mass.).
Measured and predicted systemic Ca^++ were compared pre-HD and at 15 min into the treatment. For the latter, pre-HD predicted were adjusted to measured values. Pre- and post-dialyzer comparisons between measured and estimated Ca^++ were performed at 15 min into the treatment. Deviations between predicted and measured systemic Ca^++ over the entire treatment were compared for tertiles of AP and tPTH.
Results are presented below as mean±standard deviation (SD) unless otherwise noted. Differences between predicted and measured values were calculated as predicted minus measured and were tested for significant deviation from zero by means of two-tailed one-sample t test. Bland-Altman plots were generated and the underlying data analyzed for systematic bias by means of linear regression. Statistical significance was accepted for an alpha level of <0.05.

Where [1] appears, read: Citrasate dialysate, no post-dialyzer Ca infusion.

`O=C([O-])CC(O)(CC(=O)[O-])C(=O)[O-].[Na+].[Na+].[Na+]` [Trisodium citrate]: under setting [1], the “Measured post-dialyzer Ca” value came to 0.7 ± 0.05 mmol/L and the “Measured systemic Ca++” value turned out to be 1.01 ± 0.05 mmol/L. Under “after citrate infusion”, the “Measured pre-dialyzer Ca” value was found to be 0.33 ± 0.06 mmol/L.
